A short description of assay [1]: Linear Polarisation Resistance (LPR) Test, Example 30, synthetic brine composition 1 or 2.
Assay [2] in a line: LPR test of Example 31, variety of brines and brine/depolarised kerosene fluids. Here is the method: The LPR test was carried out using the corrosion inhibitor of Example 1. The LPR test was carried out using the same conditions as the LPR test of Example 30 except for the composition of the corrosive fluid, the temperature, and the dose of the corrosion inhibitor.
The mark [3] stands for this setting: brine composition 1, dose 40 ppm of product, one addition, time 19.9-20.1 hr, 60° C., constant CO2 sparge.
Setting [4] is: brine composition 2, dose 40* ppm, four additions each of 10 ppm, time 25.3-28.8 hr, 60° C., constant CO2 sparge.
The mark [5] stands for this setting: Test 1: brine composition 1 (Table 6), 60 ° C., dose 50 ppm, 4 hours.
The mark [6] stands for this setting: Test 3: brine composition 3 and depolarised kerosene 90:10 volume ratio, 82 ° C., dose 60 ppm, 5 hours.
[7] abbreviates: Test 4: brine composition 4 and depolarised kerosene 90:10 volume ratio, 82 ° C., dose 60 ppm, 5 hours.
Where [8] appears, read: Test 5: brine composition 5 and depolarised kerosene 90:10 volume ratio, 82 ° C., dose 60 ppm, 5 hours.
Where [9] appears, read: Test 6: brine composition 6 and depolarised kerosene 90:10 volume ratio, 82 ° C., dose 60 ppm, 5 hours.

With “disodium 2-octen-1-ylsuccinate [Example 5]”, in assay [1] (setting [3]), the Corrosion protection is given as 89% and the Corrosion rate is reported as 0.46 mmpy.

Consider “potassium PEG200 2-octen-1-yI succinate [Example 21]”, for which, in assay [1] (setting [4]), the Corrosion protection was found to be 59% and the Corrosion rate came to 2.24 mmpy.

For “sodium 1,6-hexanediol dodecenyl succinate [Example 15]”, in assay [1], the Corrosion protection is 41% and the Corrosion rate came out at 1.68 mmpy.

In assay [1], “sodium 1-hexanol dodecenyl succinate [Example 10]” yielded a Corrosion protection of 92% and a Corrosion rate of 0.29 mmpy.

In assay [1], “sodium 2-ethyl-1,3-hexanediol dodecenyl succinate [Example 9]” returned a Corrosion protection of 51% and a Corrosion rate of 2.02 mmpy.

In assay [1], “sodium 3-dimethylaminopropylamine dodecenyl succinamide [Example 13]” returned a Corrosion protection of 46% and a Corrosion rate of 1.73 mmpy.

As for “sodium PEG200 2-octen-1-ylsuccinate [Example 1]”, the Corrosion protection was found to be 96% in assay [2] (setting [5]); 96% in assay [2] (Test 2: brine composition 2 (Table 6), 60 ° C., dose 50 ppm, 4 hours); 99% in assay [2] (setting [6]); 98% in assay [2] (setting [7]); 96% in assay [2] (setting [8]); 95% in assay [2] (setting [9]). Besides, in assay [1], the Corrosion protection worked out at 99%. Besides, the Corrosion rate came to 0.1320 mmpy in assay [2] (setting [5]); 0.0358 mmpy in assay [2] (setting [6]); 0.0833 mmpy in assay [2] (setting [7]); 0.1387 mmpy in assay [2] (setting [8]); 0.1646 mmpy in assay [2] (setting [9]); 0.03 mmpy in assay [1]. Further, the “Corrosion inhibition, result in words” value in assay [2] (variety of brines and brine/hydrocarbon emulsions) is “effective corrosion inhibitor”.

With “sodium benzyl alcohol dodecenyl succinate [Example 8]”, in assay [1], the Corrosion protection is given as 96% and the Corrosion rate is on record as 0.14 mmpy.

In assay [1], “sodium diethanolamine dodecenylsuccinamide [Example 4]” yielded a Corrosion protection of 99% and a Corrosion rate of 0.06 mmpy.

The substance sodium dodecanol phthalate [Example 26] came in with a Corrosion protection in assay [1] of 99%.

Take “sodium furfuryl alcohol dodecenyl succinic anhydride [Example 28]”: in assay [1], the Corrosion protection came out at 99% and the Corrosion rate turned out to be 0.04 mmpy.

For “triethanolamine PEG200 2-octen-1-yl succinate [Example 22]”, in assay [1], the Corrosion protection is recorded as 68% and the Corrosion rate came to 2.44 mmpy.

The record behind these values is US20250109343A1, “CORROSION INHIBITOR” (INNOSPEC LIMITED, priority 2022, published 2025).
